The values that follow come from PubChem BioAssay (NCI).

Several values for one entry are separate records, joined by “and”; a condition that tells them apart may be missing. Equal entries are not always repeated.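 All cell lines were grown in 96-well plates and treated with compound for 48 hours. The concentration for 50% growth inhibition is given as GI50. TGI denotes the concentration required for complete inhibition of growth.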

Common to all, as to experiment: growth of human tumour cells (NCI), 48 h
Assay [1] relates to A498 renal.
The subject of assay [2] is A549 NSCLC.
Assay [3] has as its system MALME-3M melanoma.
The test system of assay [4] is MCF7 breast.
For assay [5], the system named is NCI-H226 lung.
The subject of assay [6] is OVCAR-4 ovarian.
For assay [7], the system named is OVCAR-5 ovarian.
Assay [8] relates to SF-268 CNS.
Assay [9] concerns SK-OV-3 ovarian.
For assay [10], the system named is SNB-19 CNS.

On to `CC(C)c1ccc(/C=C2/C=C(c3ccc4ccccc4c3)OC2=O)cc1`, for which the TGI in [1] is greater than 100 µM; in [2], greater than 100 µM; in assay [3], 33.4 µM; in [4], greater than 100 µM; in assay [5], greater than 100 µM; in [6], greater than 100 µM. Also, the TGI in assay [7], in assay [8], in assay [9] and in assay [10] was greater than 100 µM throughout.

Turning to `CC(=O)O[C@H]1C(=O)[C@]2(C)[C@@H](OC(=O)OCCC(O)CO)C[C@H]3OC[C@@]3(OC(C)=O)[C@H]2[C@H](OC(=O)c2ccccc2)[C@]2(O)C[C@H](OC(=O)[C@H](O)[C@@H](NC(=O)c3ccccc3)c3ccccc3)C(C)=C1C2(C)C` (some centres not stated), the TGI in assay [1] was 21.6 µM; in [2] it was greater than 100 µM; in assay [3] it was 16.3 µM; in assay [4], greater than 35 µM; in assay [5] it was 0.576 µM; in assay [6], greater than 94.3 µM. Moreover, the TGI in assay [7] is greater than 36.6 µM; in assay [8], 34.9 µM; in assay [10], 88.4 µM.

For the compound `O=S1(=O)NC(=NCc2c[nH]c3ccccc23)N(c2ccccc2)c2ccncc21`, the TGI in assay [1], in [2], in [3], in assay [4], in [5] and in [6] was greater than 100 µM in each case. Also, the TGI is greater than 100 µM in assay [7], 75.6 µM in assay [8], greater than 100 µM in assay [9] and greater than 100 µM in [10].

For `Cc1c2cnccc2c(C)c2c1c1ccccc1n2CCCN`, the GI50 in [1] was 0.468 µM; in [2], 0.0471 µM; in assay [3] it was 0.313 µM; in [4], 0.0474 µM; in assay [5], 1.18 µM; in assay [6], 0.0661 µM. Further, the GI50 was 0.196 µM in assay [7]; 0.2 µM and 0.141 µM in assay [8]; 0.278 µM in assay [9]; 0.0945 µM in assay [10]. Besides, the TGI in [1] was 1.62 µM and 1.15 µM; in [2], 1.29 µM and 0.447 µM; in assay [3], 2.09 µM and 1.08 µM; in assay [4], 1.19 µM and 0.277 µM; in [5], 1.86 µM and 2.78 µM; in [6], 0.665 µM and 0.246 µM. Further, the TGI in [7] is 1.71 µM and 0.874 µM; in assay [8], 0.879 µM and 0.583 µM; in assay [9], 1.71 µM and 1.25 µM; in [10], 2.19 µM and 0.781 µM.

In the case of `COc1c(C)c(C/C=C(\C)CCCCO[Si](c2ccccc2)(c2ccccc2)C(C)(C)C)c(OC)c(OC)c1OC`, the TGI was greater than 100 µM in [1]; 51 µM in assay [2]; greater than 100 µM in [3]; greater than 46.4 µM in [4]; greater than 100 µM in [5]; greater than 46.4 µM in [6]. Moreover, the TGI in assay [7] was greater than 46.4 µM; in [8] it was greater than 100 µM; in assay [9] it was greater than 46.4 µM; in assay [10], greater than 46.4 µM.

In the case of `CCNC(=S)N/N=C/c1cc([N+](=O)[O-])ccc1O`, the TGI is 69.1 µM in [1]; greater than 100 µM in assay [2]; greater than 100 µM in [3]; 4.4 µM in assay [4]; greater than 100 µM in assay [5]; 72.8 µM in assay [6]. Moreover, the TGI in assay [7], in assay [8], in [9] and in assay [10] was greater than 100 µM in each case.

Consider `Oc1cc2c3c(c1)c1cc4c(cc1c[n+]3CC2)OCO4`, for which the TGI in assay [1] is greater than 74.7 µM; in [2], greater than 88.5 µM; in assay [3], 7.85 µM; in assay [4] it was greater than 100 µM; in assay [5], 17.2 µM; in assay [6], greater than 48.6 µM. In addition, the TGI was greater than 100 µM in assay [7], 8.9 µM in assay [8], greater than 100 µM in assay [9] and 10.2 µM in [10].

On to `COc1cc([C@@H]2c3cc4c(cc3[C@@H](Nc3ccc([N+](=O)[O-])cc3C(=O)c3ccccc3)[C@H]3COC(=O)[C@H]23)OCO4)cc(OC)c1OC`, for which the TGI in [1], in assay [2], in assay [3], in assay [4], in assay [5] and in [6] was greater than 100 µM throughout. Moreover, the TGI in assay [7], in [8], in [9] and in [10] was greater than 100 µM throughout.

On to `N#CC1=C(N)N(c2ccccc2)C(c2ccco2)C1(C#N)C#N` (configuration not stated), for which the TGI in [1] is 49.1 µM; in assay [2], greater than 100 µM; in assay [3], 52.8 µM; in [4], 43.9 µM; in assay [5], 42 µM; in assay [6] it was 49 µM. In addition, the TGI in [7] was 48.4 µM; in assay [8] it was greater than 100 µM; in assay [9] it was greater than 100 µM; in [10] it was 71.4 µM.

As for `O=[N+]([O-])/C(C(Cl)=C(Cl)Cl)=C(\SCc1ccccc1)N1CCCCC1`, the TGI in [1] is 70.1 µM; in assay [2], greater than 100 µM; in assay [3], 27.1 µM; in [4], 32.2 µM; in assay [5], 53.2 µM; in assay [6], 51.5 µM. Further, the TGI was 43.9 µM in assay [7], 74.3 µM in [8], greater than 100 µM in assay [9] and greater than 100 µM in assay [10].

Regarding `CCc1ccc(CCN2CCCCC2)nc1`, the TGI in assay [1], in [2], in assay [3], in [4], in [5] and in assay [6] was greater than 100 µM each time. Moreover, the TGI in [7], in [8], in assay [9] and in [10] was greater than 100 µM in each case.

As to `Cc1cc(O)c2c(=O)c3ccccc3[nH]c2c1`, the TGI is 82.6 µM in assay [1]; greater than 100 µM in [2]; greater than 100 µM in [3]; greater than 100 µM in [4]; 94.3 µM in assay [5]; 75.8 µM in assay [6]. Moreover, the TGI in [7], in [8], in assay [9] and in [10] was greater than 100 µM in each case.

Regarding `O=c1[nH]cc(N=Cc2cc(Cl)cc(Cl)c2O)c(=O)[nH]1`, the TGI was greater than 100 µM in assay [1]; greater than 100 µM in [2]; 49.9 µM in assay [3]; greater than 100 µM in assay [4]; 62.1 µM in assay [5]; 57.2 µM in assay [6]. Also, the TGI in assay [7] was greater than 100 µM; in assay [8] it was 47.4 µM; in assay [9] it was 53.9 µM; in [10], greater than 100 µM.

Regarding `O=C(Nc1ccc(C2=NCCN2)cc1)c1cncc(C(=O)Nc2ccc(C3=NCCN3)cc2)c1`, the TGI in assay [1], in assay [2], in assay [3], in [4], in assay [5] and in assay [6] was greater than 100 µM in each case. The TGI in assay [7] was greater than 100 µM; in assay [8], greater than 31.6 µM; in assay [9], greater than 100 µM; in assay [10], greater than 100 µM.

For `Cc1ccsc1/C=N/Nc1ncccn1`, the TGI in assay [1], in assay [2], in assay [3], in assay [4], in assay [5] and in assay [6] was greater than 100 µM each time. Moreover, the TGI in assay [7], in [8], in assay [9] and in assay [10] was greater than 100 µM each time.

Regarding `CCC1(O)CC2CC(=O)OC2C1O` (configuration not stated), the TGI in assay [1], in assay [2], in [3], in [4], in assay [5] and in assay [6] was greater than 100 µM each time. Further, the TGI in [7], in [8], in assay [9] and in assay [10] was greater than 100 µM in each case.

Regarding `O=[N+]([O-])C(=C1NCCN1)/C(Cl)=C(\Cl)Br`, the TGI is greater than 63.4 µM in [1]; greater than 100 µM in assay [2]; greater than 61.7 µM in [3]; greater than 78.7 µM in assay [4]; greater than 100 µM in assay [5]; greater than 100 µM in assay [6]. Also, the TGI in assay [7] is greater than 100 µM; in assay [8], greater than 89.9 µM; in assay [9], greater than 100 µM; in assay [10] it was greater than 100 µM.

Take `Cc1cccc(/C=N/NC(=S)Nc2ccccc2)n1`: the TGI in assay [1] was 67 µM; in assay [2], greater than 100 µM; in assay [3], 64.2 µM; in assay [4] it was greater than 25.7 µM; in assay [5], greater than 25 µM; in [6], greater than 90.4 µM. The TGI in assay [7] is greater than 100 µM; in assay [8], greater than 100 µM; in assay [9], greater than 68.7 µM; in assay [10] it was 98.3 µM.

In the case of `O=C1CCC(=O)N1n1c(Cc2ccccc2)n[nH]c1=O`, the TGI in assay [1], in assay [2], in [3], in [4], in assay [5] and in assay [6] was greater than 100 µM in each case. The TGI in [7], in [8], in assay [9] and in [10] was greater than 100 µM each time.

Regarding `O=C(Cc1cccs1)N[C@@H]1C(=O)N2C(C(=O)OC(c3ccccc3)c3ccccc3)=C(CO)CS[C@H]12`, the TGI in assay [1] was greater than 100 µM; in assay [2] it was greater than 100 µM; in assay [3], greater than 100 µM; in assay [4] it was greater than 100 µM; in assay [5], 96.9 µM; in assay [6] it was greater than 100 µM. In addition, the TGI in [7] and in assay [9] was greater than 100 µM throughout.

`C[C@@]12C[C@@H](c3ccccc3O1)N1CCCCSC1=N2`: the TGI in assay [1], in [3], in [4], in assay [5], in assay [6] and in [7] was greater than 100 µM throughout. For the same compound, the TGI in [8], in assay [9] and in [10] was greater than 100 µM throughout.

In the case of `CC1=C(C)[C@@]2(C)O[C@@]2(C)O[C@@]2(C)O[C@@]12C`, the TGI in assay [1], in assay [2], in assay [3], in assay [4], in [5] and in assay [6] was greater than 100 µM each time. Moreover, the TGI in assay [7], in assay [8], in [9] and in assay [10] was greater than 100 µM throughout.

For the compound `C=C(Br)C(C)(Cl)CCC(Br)C(C)(C)Cl` (configuration not stated), the TGI was greater than 100 µM in assay [1]; greater than 100 µM in assay [2]; 57.8 µM in assay [3]; greater than 100 µM in assay [4]; 66.2 µM in assay [5]; greater than 100 µM in [6]. The TGI in assay [7], in assay [8], in assay [9] and in assay [10] was greater than 100 µM throughout.

Take `O=C(O)CN(CC(=O)O)C1CCCCC1N(CC(=O)O)CC(=O)NCCN=C=S` (configuration not stated): the TGI in assay [1], in assay [2], in assay [3], in assay [4], in assay [5] and in assay [7] was greater than 100 µM each time. In addition, the TGI in assay [8], in [9] and in assay [10] was greater than 100 µM each time.

With `CC[C@@]1(O)C(=O)OCc2c1cc1n(c2=O)Cc2c-1nc1ccccc1c2/C=N\NC(=O)CN`, the TGI in [1] is 3.76 µM; in assay [2], greater than 100 µM; in assay [3] it was greater than 91.6 µM; in assay [4] it was greater than 64 µM; in assay [5] it was 3.54 µM; in assay [6], greater than 100 µM. For the same compound, the TGI is greater than 100 µM in [7] and 16.7 µM in assay [8].

For `COc1ccc(C2c3cc4c(cc3OC(NNS(=O)(=O)c3ccc(C)cc3)C2C)OCO4)cc1` (configuration not stated), the TGI in assay [1], in assay [2], in assay [3], in assay [4], in assay [5] and in assay [7] was greater than 100 µM in each case. Besides, the TGI in assay [8], in assay [9] and in assay [10] was greater than 100 µM in each case.
